Test results from US20200000704A1, “DEGRADATION INHIBITOR OF HYALURONIC ACID, COMPRISING ROSEMARY EXTRACT AND RETINOL ACETATE” (Shiseido Company, Ltd., priority 2012, published 2020).
“Also recorded” adds a separate entry of the source.

Tested on: hyaluronidase
Experiment: Examination for inhibiting hyaluronic acid degradation (hyaluronidase inhibition, p-DMAB colour reaction, OD 585 nm)
Type: biochemical
Settings: final concentration: rosemary extract BG 0.000165 w/w % at dry weight, retinol acetate 0.0000516 w/w %; substrate sodium hyaluronate; absorbance OD 585 nm with control (water) adjusted to 100; FIG. 1
Experimental: 50 μl hyaluronidase solution (1 mg/ml) (Sigma Aldrich Japan K.K.) was placed into a microtube, and 50 μl of an evaluation drug was added, and then the mixture was incubated for 10 min at 37° C. Rosemary extract BG (Maruzen Pharmaceuticals, Co., Ltd.), retinol acetate (BASF Japan Ltd.), and rosemary extract and retinol acetate were used as the evaluation drug, and water was used as a control instead of the evaluation agent. Rosemary extract BG was added so that the final concentration thereof after addition of hyaluronic acid sodium aqueous solution was 0.000165 w/w % at dry weight. Retinol acetate was added so that the final concentration thereof after addition of hyaluronic acid sodium aqueous solution was 0.0000516 w/w %. After incubation, 400 μl of 1 mg/ml sodium hyaluronate (Shiseido Co., Ltd., MW 1,100,000-1,600,000) was added to the solution, and then incubated at 37° C., for 10 min, and then 50 μl of sodium hydroxide (0.2 M) was added to stop the reaction. This solution was boiled for 3 min, then cooled with flowing water. 300 μl of 10% p-DMAB (dimethylaminobenzaldehyde) solution (NACALAI TESQUE, Inc.) was added to the solution, and then incubated for 37° C. for 20 min. After bringing it back to room temperature, 100 μl of each solution was poured into each well of 96 well-plate, and OD 585 nm was determined by using […] Pharma Biomedical Co., Ltd.).

retinol acetate
hyaluronidase inhibitory activity: does not have a hyaluronidase activity; also recorded: did not have a hyaluronidase inhibitory activity
